≈ marks a conversion by molar mass, not a printed value.
How the values were obtained:
[1] = test system: Mycobacterium tuberculosis H37Ra strain; assay: microbe, parasite or virus in culture; assay type: cell-based; settings: for MIC: Mycobacterium tuberculosis, H37RA, 168 h, read-out: MIC (μg/mL) Mycobacterium tuberculosis H37Ra
[2] = test system: Mycobacterium smegmatis strain (mc2155); assay: Resazurin microplate MIC on Mycobacterium smegmatis; assay type: cell-based; settings: mc2155, 7H9 medium, 37° C., 48 hours, resazurin; for MIC: Mycolicibacterium smegmatis, MC2155, 48 h, read-out: MIC (μg/mL) Mycobacterium smegmatis
[3] = test system: Mycobacterium bovis BCG strain; assay: microbe, parasite or virus in culture; assay type: cell-based; settings: for MIC: Mycobacterium tuberculosis variant bovis BCG, BCG, 168 h, read-out: MIC (μg/mL) Mycobacterium bovis BCG, BCG strain, 7H9 medium, 37° C., 168 hours, resazurin
[4] = test system: Mycobacterium tuberculosis (H37Rv); settings: reports, in words; cited from earlier work

SMILES	MIC [1]	MIC [2]	MIC [3]	effect against Mycobacterium tuberculosis (H37Rv) [4]	MIC (μg/mL) Mycobacterium tuberculosis H37Ra [1]	MIC (μg/mL) Mycobacterium smegmatis [2]	MIC (μg/mL) Mycobacterium bovis BCG ([3]; BCG strain, 7H9 medium, 37° C., 168 hours, resazurin)
Cc1c(C(=O)O[C@H]2C[C@H]3CC[C@]2(C)C3(C)C)nn(-c2ccc(Cl)cc2Cl)c1-c1ccc(Cl)cc1 [Compound 173, (1R,2S,4R)-1,7,7-trimethyl-bicyclo[2.2.1]heptan-2-yl 5-(4-chlorophenyl)-1-(2,4-dichlorophenyl)-4-methyl-1H-pyrazole-3-carboxylate]	> 232 µg/mL	57.9 µg/mL (≈ 112 µM)	> 232 µg/mL	–	–	–	–
Cc1c(C(=O)NN2CCCCC2)nn(-c2ccc(Cl)cc2Cl)c1-c1ccc(Cl)cc1 [Rimonabant, rimonabant, reference compound]	17 µg/mL (≈ 36.6 µM)	17 µg/mL (≈ 36.6 µM)	34 µg/mL (≈ 73.3 µM)	significant effect	16.99 µg/mL (≈ 36.6 µM)	16.99 µg/mL (≈ 36.6 µM)	33.99 µg/mL (≈ 73.3 µM)
